{"source": "ChEMBL document CHEMBL1126457", "about": "“Synthesis of novel targeted pro-prodrugs of anthracyclines potentially activated by a monoclonal antibody galactosidase conjugate (part 1)” (1992)"}
{"test_system": "L1210", "test": "Compound was evaluated for cytotoxicity against L1210 murine leukemia cells", "type": "functional, Mus musculus", "units": {"Cytotoxicity": "µg/mL"}}
{"smiles": "COc1cccc2c1C(=O)c1c(O)c3c(c(O)c1C2=O)C[C@@](O)(C(C)=O)C[C@@H]3O[C@H]1C[C@@H](NC(=O)OCc2ccc(O[C@H]3O[C@@H](CO)[C@H](O)[C@H](O)[C@@H]3O)cc2)[C@H](O)[C@H](C)O1", "Cytotoxicity": ">1"}
{"smiles": "COc1cccc2c1C(=O)c1c(O)c3c(c(O)c1C2=O)C[C@@](O)(C(C)=O)C[C@@H]3O[C@H]1C[C@@H](NC(=O)OCc2ccccc2O[C@H]2O[C@@H](CO)[C@H](O)[C@H](O)[C@@H]2O)[C@H](O)[C@H](C)O1", "Cytotoxicity": ">1"}
{"smiles": "COc1cccc2c1C(=O)c1c(O)c3c(c(O)c1C2=O)C[C@@](O)(C(C)=O)C[C@@H]3O[C@H]1C[C@H](N)[C@H](O)[C@H](C)O1", "note": "[DAUNORUBICIN]", "Cytotoxicity": 0.02}
